# Assay results as given in patent US11613546B2, “Substituted pyridotriazine compounds and uses thereof” (Gilead Sciences, Inc., priority 2021, dated 2023).
# Like-named read-outs stand apart in the source and are kept apart here.
# Tests used:
# Format in all cases: cell-based
# pLai RLuc reporter virus = test: HIV MT-4 serum shift antiviral reporter assay; conditions: Human immunodeficiency virus 1, 72 h
# Protocol: To quantify the amount of protein binding to human serum, compounds were serially diluted (1:3) in DMSO and acoustically transferred onto 384-well assay plates via a Labcyte ECHO robot. Each plate contained up to 8 test compounds, including negative and positive controls, (DMSO, 5 μM AZT respectively). Assay plates were prepared in duplicate, and tested in either CCM (cell culture media) or HS/CCM (human serum/cell culture media). MT-4 cells were first pre-infected with pLai RLuc reporter virus for 2 h at 37° C., then further diluted in either CCM (RPMI media, 10% FBS, 1% P/S) or HS/CCM (RPMI media, 10% FBS, 50% HS, 1% P/S), and subsequently added to each plate using a Biotek Micro Flow dispenser. After a 72-h incubation in a humidified and temperature controlled incubator (37° C.), Renilla Glo (Promega) was added to all assay plates and chemiluminescence read using an Envision plate-reader. EC50 values were defined as the compound concentration that causes a 50% decrease in luminescence signal, and were calculated using a sigmoidal dose-response model to generate curve fits. To determine the amount of protein binding, EC50 fold shifts (or EC50 shifts) were calculated by dividing EC50 (HS/CCM)/EC50 (CCM).
# [1] = Cytotoxicity assay in MT-4 cells; conditions: human
# Protocol: (§1) Compounds were tested in a high-throughput 384-well assay format for their ability to inhibit the replication of HIV-1 (IIIB) in MT-4 cells. Compounds were serially diluted (1:3) in DMSO on 384-well polypropylene plates and further diluted 200-fold into complete RPMI media (10% FBS, 1% P/S) using the Biotek Micro Flow and Labcyte ECHO acoustic dispenser. Each plate contained up to 8 test compounds, with negative (No Drug Control) and 5 μM AZT positive controls. MT-4 cells were pre-infected with 10 μL of either RPMI (mock-infected) or a fresh 1:250 dilution of HIV-1 IIIB concentrated virus stock. Infected and uninfected MT-4 cells were further diluted in complete RPMI media and added to each plate using a Micro Flow dispenser. After 5 days incubation in a humidified and temperature controlled incubator (37° C.), Cell Titer Glo (Promega) was added to the assay plates and chemiluminescence read using an Envision plate-reader. EC50 values were defined as the compound concentration that causes a 50% decrease in luminescence signal, and were calculated using a sigmoidal dose-response model to generate curve fits. Cytotoxicity Assay in MT-4 Cells Assays were performed as above except uninfected MT-4 cells were added to each well containing test compound. In addition, 10 μM puromycin was added to the last column of each assay plate to assess a base level of cytotoxicity.
# HIV-1 (IIIB) = test: Antiviral assay in MT-4 cells; conditions: Human immunodeficiency virus 1, IIIB, MT4, 120 h, HIV-1 IIIB infected MT-4 cells, 5 days, Cell Titer Glo; read-out: MT4 EC50
# Protocol: Antiviral Assay in MT-4 Cells
# as §1, with “fits.” for “fits. Cytotoxicity Assay in MT-4 Cells Assays were performed as above except uninfected MT-4 cells were added to each well containing test compound. In addition, 10 μM puromycin was added to the last column of each assay plate to assess a base level of cytotoxicity.”
# [2] = read-out: RLUC 50% HS (nM), HS/CCM: 50% human serum, 72 h, Renilla Glo
# [3] = read-out: RLUC CCM (nM), cell culture media (RPMI, 10% FBS), 72 h, Renilla Glo
# [4] = uninfected MT-4 cells, 5 days, Cell Titer Glo, read-out: CC50
SMILES,EC50 (pLai RLuc reporter virus; [2]) [nM],EC50 (pLai RLuc reporter virus; [3]) [nM],"CC50 at 5 days [1, 4] [nM]",EC50 (HIV-1 (IIIB)) [nM],CC50 at 5 days ([1]; CC50 (nM)) [nM]
"C[C@H]1CCCCN2CN1n1cc(C(=O)NCc3ccc(F)cc3F)c(=O)c(O)c1C2=O [Example C42, (1R,2S)—N-(2,4-difluorobenzyl)-9-hydroxy-2-methyl-8,10-dioxo-3,4,5,6,8,10-hexahydro-2H-1,7-methanopyrido[1,2-b][1,2,5]triazecine-11-carboxamide]",1880,2.47,7030,2.2,–
"COC[C@@H]1C=C[C@H](C)N2CN1n1cc(C(=O)NCc3ccc(F)cc3F)c(=O)c(O)c1C2=O [Example C82, (1S,2S,5S)—N-(2,4-difluorobenzyl)-8-hydroxy-2-(methoxymethyl)-5-methyl-7,9-dioxo-2,5,7,9-tetrahydro-1,6-methanopyrido[1,2-b][1,2,5]triazonine-10-carboxamide]",75,0.73,16800,1.3,–
"CC(C)[C@@H]1C=C[C@H](C)N2CN1n1cc(C(=O)NCc3c(F)cc(F)cc3F)c(=O)c(O)c1C2=O [Example C74, (1S,2R,5S)-8-hydroxy-2-isopropyl-5-methyl-7,9-dioxo-N-(2,4,6-trifluorobenzyl)-2,5,7,9-tetrahydro-1,6-methanopyrido[1,2-b][1,2,5]triazonine-10-carboxamide]",325,0.47,6810,0.9,–
"C[C@H]1CCC2(CCC2)N2CN1C(=O)c1c(O)c(=O)c(C(=O)NCc3c(F)cc(F)cc3F)cn12 [Example C105, (1′S,5′S)-8′-hydroxy-5′-methyl-7′,9′-dioxo-N-(2,4,6-trifluorobenzyl)-4′,5′,7′,9′-tetrahydro-3′H-spiro[cyclobutane-1,2′-[1,6]methanopyrido[1,2-b][1,2,5]triazonine]-10′-carboxamide]",998,1.38,–,3,13600
"C[C@@H]1C/C=C\[C@H](C)N2CN1n1cc(C(=O)NCc3c(F)cc(F)cc3F)c(=O)c(O)c1C2=O [Example C12, (1R,2S,6R,Z)-9-hydroxy-2,6-dimethyl-8,10-dioxo-N-(2,4,6-trifluorobenzyl)-3,6,8,10-tetrahydro-2H-1,7-methanopyrido[1,2-b][1,2,5]triazecine-11-carboxamide]",273,0.77,10800,3.4,–
"CO[C@H]1C[C@@H](C)N2CN(C[C@H]1OC)C(=O)c1c(O)c(=O)c(C(=O)NCc3ccc(F)cc3F)cn12 [Example C39, (1S,2R,4S,5R)—N-(2,4-difluorobenzyl)-9-hydroxy-4,5-dimethoxy-2-methyl-8,10-dioxo-3,4,5,6,8,10-hexahydro-2H-1,7-methanopyrido[1,2-b][1,2,5]triazecine-11-carboxamide]",4.7,0.93,20300,3.5,–
"COC[C@@H]1CC[C@H](C)N2CN1n1cc(C(=O)NCc3ccc(F)cc3F)c(=O)c(O)c1C2=O [Example C83, (1S,2S,5S)—N-(2,4-difluorobenzyl)-8-hydroxy-2-(methoxymethyl)-5-methyl-7,9-dioxo-2,3,4,5,7,9-hexahydro-1,6-methanopyrido[1,2-b][1,2,5]triazonine-10-carboxamide]",261,1.97,30500,3.6,–
"CC(C)[C@@H]1CC[C@H](C)N2CN1n1cc(C(=O)NCc3c(F)cc(F)cc3F)c(=O)c(O)c1C2=O [Example C75, (1S,2S,5S)-8-hydroxy-2-isopropyl-5-methyl-7,9-dioxo-N-(2,4,6-trifluorobenzyl)-2,3,4,5,7,9-hexahydro-1,6-methanopyrido[1,2-b][1,2,5]triazonine-10-carboxamide]",277,1.02,10900,2,–
"C[C@H]1CC[C@@H](CF)N2CN1n1cc(C(=O)NCc3ccc(F)cc3F)c(=O)c(O)c1C2=O [Example C96, (1R,2S,5S)—N-(2,4-difluorobenzyl)-5-(fluoromethyl)-8-hydroxy-2-methyl-7,9-dioxo-2,3,4,5,7,9-hexahydro-1,6-methanopyrido[1,2-b][1,2,5]triazonine-10-carboxamide]",958,8.27,5370,11.2,–
"C[C@@H]1C[C@H](F)[C@H](CF)N2CN1n1cc(C(=O)NCc3c(F)cc(F)cc3F)c(=O)c(O)c1C2=O [Example C99, (1S,2R,4S,5S)-4-fluoro-5-(fluoromethyl)-8-hydroxy-2-methyl-7,9-dioxo-N-(2,4,6-trifluorobenzyl)-2,3,4,5,7,9-hexahydro-1,6-methanopyrido[1,2-b][1,2,5]triazonine-10-carboxamide]",349,0.52,9440,1.7,–
"CC[C@H]1C=C[C@H](C)N2CN1n1cc(C(=O)NCc3c(F)cc(F)cc3F)c(=O)c(O)c1C2=O [Example C106, (1S,2S,5S)-2-ethyl-8-hydroxy-5-methyl-7,9-dioxo-N-(2,4,6-trifluorobenzyl)-2,5,7,9-tetrahydro-1,6-methanopyrido[1,2-b][1,2,5]triazonine-10-carboxamide]",107,0.22,18400,1.7,–
"C[C@@H]1C=CC(C)(C)N2CN1n1cc(C(=O)NCc3ccc(F)cc3F)c(=O)c(O)c1C2=O [Example C90, (1S,2R)—N-(2,4-difluorobenzyl)-8-hydroxy-2,5,5-trimethyl-7,9-dioxo-2,5,7,9-tetrahydro-1,6-methanopyrido[1,2-b][1,2,5]triazonine-10-carboxamide]",91.9,0.35,47100,2,–
"C[C@H]1C=C[C@@H](CF)N2CN1n1cc(C(=O)NCc3ccc(F)cc3F)c(=O)c(O)c1C2=O [Example C97, (1R,2S,5S)—N-(2,4-difluorobenzyl)-5-(fluoromethyl)-8-hydroxy-2-methyl-7,9-dioxo-2,5,7,9-tetrahydro-1,6-methanopyrido[1,2-b][1,2,5]triazonine-10-carboxamide]",1730,14.7,9550,34.9,–
"C[C@@H]1C=C[C@@H](C)N2CN1C(=O)c1c(O)c(=O)c(C(=O)NCc3c(F)cc(F)cc3F)cn12 [Example C64, (1S,2R,5R)-8-hydroxy-2,5-dimethyl-7,9-dioxo-N-(2,4,6-trifluorobenzyl)-2,5,7,9-tetrahydro-1,6-methanopyrido[1,2-b][1,2,5]triazonine-10-carboxamide]",150,0.27,11400,0.8,–
"C[C@H]1CCC2(CCOC2)N2CN1C(=O)c1c(O)c(=O)c(C(=O)NCc3c(F)cc(F)cc3F)cn12 (stereo partly drawn) [Example C86, (1′S,5′S)-8′-hydroxy-5′-methyl-7′,9′-dioxo-N-(2,4,6-trifluorobenzyl)-4,4′,5,5′,7′,9′-hexahydro-2H,3′H-spiro[furan-3,2′-[1,6]methanopyrido[1,2-b][1,2,5]triazonine]-10′-carboxamide]",14.1,0.27,–,0.5,26000
